This experiment deals with T1, LPA1R (Homo sapiens, UniProt Q92633).
T1 construct: host or cells: LPA1R expressing cells (Millipore, GPCR Profiler)
Description: Calcium flux assay: inhibition of LPA-stimulated Ca2+ flux (FLIPR, antagonist mode). The note with it: LPA1R Ca2+ flux functional assay, LPA1R expressing cells challenged with EC80 of LPA, read-out: LPA1 R Antagonist Activity. The format is cell-based. As to the method: Inhibition of LPA-stimulated Ca^2+ flux was used to assess compound potency using FLIPR technology in a 96 well plate format. The assay buffer used was a modified Hanks Balanced Salt Solution (HBSS) where HBSS was supplemented to contain 20 mM HEPES and 2.5 mM Probenecid at pH7.4 (Millipore, GPCR Profiler®). LPA1R expressing cells (Millipore) were plated and prepared 24 hours prior to assay of test articles. Ca^2+ ion flux was assessed from fluorescence of a Fluo-based No Wash Ca^2+ dye. Antagonist data are generated from plates with LPA concentrations sufficient to generate 80% efficacy [EC80]. Percentage inhibition was calculated from a reduction of efficacy according to concentration of compounds of Formula I-VI. For dose responses the inhibition data was used to calculate compound IC50.
The agonist assay was conducted on a FLIPR^TETRA instrument where the test compound(s), vehicle controls, and reference agonist were added to the assay plate after a fluorescence baseline was established. The agonist assay was a total of 180 seconds and was used to assess each compound's ability to activate each GPCR assayed. Upon completion of the agonist assay, the assay plate was removed from the FLIPR^TETRA and incubated at 25° C. for seven (7) minutes. After the incubation period, the assay plate was placed back in the FLIPR^TETRA and the antagonist assay was initiated.
Antagonist Assay: Using EC80 potency values determined during the agonist assay, all pre-incubated sample compound wells were challenged with EC80 concentration of reference agonist after establishment of a fluorescence baseline. The antagonist assay was conducted using the same assay plate that was used for the agonist assay. The antagonist assay was conducted on a FLIPR^TETRA instrument where 9 vehicle controls and EC80 concentration of reference agonist were added to appropriate wells. The antagonist assay was a total of 180 seconds and was used to assess each compound's ability to inhibit each GPCR assayed.
Data Processing: All assay plate data were subjected to appropriate baseline corrections. After baseline corrections were applied, maximum fluorescence values were exported and data processed to calculate percentage activation (relative to Emax reference agonist and vehicle control values), percentage inhibition (relative to EC80 and vehicle control values), and additional statistical values (i.e. Z′, percentage variation between replicate data values) to assess the quality of each plate. Where assay plate data were rejected, additional experiments were conducted. All dose response curves were generated using GraphPad Prism. The curves were fit by utilizing “Sigmoidal Dose Response (Variable Slope)” equation where the bottom parameter was fixed to “0.” Where appropriate, the top parameter was fixed to “100” to better predict potency values when a full curve was not generated by the concentrations assayed.
On the technique in general: Calcium flux is commonly read through the fluorescence of an indicator in the cells.

We go through 23 compounds from patent US20230286928A1, “HETEROCYCLIC COMPOUNDS USEFUL IN THE TREATMENT OF DISEASE” (Epigen Biosciences, Inc., priority 2018, published 2023).

T1 sequence (Q92633 whole entry): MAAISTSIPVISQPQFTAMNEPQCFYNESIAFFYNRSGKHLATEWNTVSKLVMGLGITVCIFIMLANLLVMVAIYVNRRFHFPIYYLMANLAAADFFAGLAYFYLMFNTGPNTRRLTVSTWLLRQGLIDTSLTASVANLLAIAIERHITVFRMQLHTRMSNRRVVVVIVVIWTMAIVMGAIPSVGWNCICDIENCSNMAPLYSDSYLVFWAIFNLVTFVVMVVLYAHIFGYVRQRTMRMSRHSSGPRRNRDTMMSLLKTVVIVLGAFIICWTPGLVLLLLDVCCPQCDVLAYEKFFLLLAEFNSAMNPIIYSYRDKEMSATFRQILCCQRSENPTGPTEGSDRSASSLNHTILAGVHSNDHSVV

On to `C[C@@H](OC(=O)Nc1c(F)cnn1-c1ccc(-c2ccc(C3(C(=O)O)CC3)cc2)nc1)c1ccccc1Cl` [Compound 1, (R)-1-(4-(5-(5-(((1-(2-chlorophenyl)ethoxy)carbonyl)amino)-4-fluoro-1H-pyrazol-1-yl)pyridin-2-yl)phenyl)cyclopropane-1-carboxylic acid], for which the IC50 is less than 300 nM.
Consider `C[C@@H](OC(=O)Nc1c(Cl)cnn1-c1ccc(-c2ccc(C3(C(=O)O)CC3)cc2)nc1)c1ccccc1Cl` [Compound 2, (R)-1-(4-(5-(4-chloro-5-(((1-(2-chlorophenyl)ethoxy)carbonyl)amino)-1H-pyrazol-1-yl)pyridin-2-yl)phenyl)cyclopropane-1-carboxylic acid], for which the IC50 is less than 300 nM.
The value for `C[C@@H](OC(=O)Nc1c(F)cnn1-c1ccc(-c2ccc(C3(C(=O)O)CC3)cc2)cc1)c1ccccc1` [Compound 3, (R)-1-(4′-(4-fluoro-5-(((1-phenylethoxy)carbonyl)amino)-1H-pyrazol-1-yl)-[1,1′-biphenyl]-4-yl)cyclopropane-1-carboxylic acid] was less than 300 nM; that for `C[C@@H](OC(=O)Nc1c(Cl)cnn1-c1ccc(-c2ccc(C3(C(=O)O)CC3)cc2)cc1)c1ccccc1` [Compound 4, (R)-1-(4′-(4-chloro-5-(((1-phenylethoxy)carbonyl)amino)-1H-pyrazol-1-yl)-[1,1′-biphenyl]-4-yl)cyclopropane-1-carboxylic acid] was less than 300 nM; that for `C[C@@H](OC(=O)Nc1c(C#N)cnn1-c1ccc(-c2ccc(C3(C(=O)O)CC3)cc2)cc1)c1ccccc1` [Compound 5, (R)-1-(4′-(4-cyano-5-(((1-phenylethoxy)carbonyl)amino)-1H-pyrazol-1-yl)-[1,1′-biphenyl]-4-yl)cyclopropane-1-carboxylic acid] was less than 300 nM.
Take `C[C@@H](OC(=O)Nc1c(C#N)cnn1-c1ccc(-c2ccc(C3(C(=O)O)CC3)cc2)cc1)c1ccccc1Cl` [Compound 6, (R)-1-(4′-(5-(((1-(2-chlorophenyl)ethoxy)carbonyl)amino)-4-cyano-1H-pyrazol-1-yl)-[1,1′-biphenyl]-4-yl)cyclopropane-1-carboxylic acid]: the IC50 is less than 300 nM.
With `C[C@@H](OC(=O)Nc1c(F)cnn1-c1ccc(-c2ccc(C3(C(=O)O)CC3)c(F)c2)cc1)c1ccccc1` [Compound 7, (R)-1-(3-fluoro-4′-(4-fluoro-5-(((1-phenylethoxy)carbonyl)amino)-1H-pyrazol-1-yl)-[1,1′-biphenyl]-4-yl)cyclopropane-1-carboxylic acid], the IC50 was less than 300 nM.
Take `C[C@@H](OC(=O)Nc1c(F)cnn1-c1ccc(-c2ccc(C3(C(=O)O)CC3)cc2F)cc1)c1ccccc1` [Compound 8, (R)-1-(2-fluoro-4′-(4-fluoro-5-(((1-phenylethoxy)carbonyl)amino)-1H-pyrazol-1-yl)-[1,1′-biphenyl]-4-yl)cyclopropane-1-carboxylic acid]: the IC50 is less than 300 nM.
The value for `C[C@@H](OC(=O)Nc1c(Cl)cnn1-c1ccc(-c2ccc(C3(C(=O)O)CC3)c(F)c2)cc1)c1ccccc1` [Compound 9, (R)-1-(4′-(4-chloro-5-(((1-phenylethoxy)carbonyl)amino)-1H-pyrazol-1-yl)-3-fluoro-[1,1′-biphenyl]-4-yl)cyclopropane-1-carboxylic acid] was less than 300 nM.
On to `C[C@@H](OC(=O)Nc1c(Cl)cnn1-c1ccc(-c2ccc(C3(C(=O)O)CC3)cc2F)cc1)c1ccccc1` [Compound 10, (R)-1-(4′-(4-chloro-5-(((1-phenylethoxy)carbonyl)amino)-1H-pyrazol-1-yl)-2-fluoro-[1,1′-biphenyl]-4-yl)cyclopropane-1-carboxylic acid], for which the IC50 was less than 300 nM.
For the compound `C[C@@H](OC(=O)Nc1c(F)cnn1-c1ccc(-c2ccc(C3(C(=O)O)CC3)cc2Cl)cc1)c1ccccc1` [Compound 11, (R)-1-(2-chloro-4′-(4-fluoro-5-(((1-phenylethoxy)carbonyl)amino)-1H-pyrazol-1-yl)-[1,1′-biphenyl]-4-yl)cyclopropane-1-carboxylic acid], the IC50 was less than 300 nM.
On to `C[C@@H](OC(=O)Nc1c(Cl)cnn1-c1ccc(-c2ccc(C3(C(=O)O)CC3)cc2Cl)cc1)c1ccccc1` [Compound 12, (R)-1-(2-chloro-4′-(4-chloro-5-(((1-phenylethoxy)carbonyl)amino)-1H-pyrazol-1-yl)-[1,1′-biphenyl]-4-yl)cyclopropane-1-carboxylic acid], for which the IC50 is less than 300 nM.
The value for `Cc1cc(C2(C(=O)O)CC2)ccc1-c1ccc(-n2ncc(F)c2NC(=O)O[C@H](C)c2ccccc2)cc1` [Compound 13, (R)-1-(4′-(4-fluoro-5-(((1-phenylethoxy)carbonyl)amino)-1H-pyrazol-1-yl)-2-methyl-[1,1′-biphenyl]-4-yl)cyclopropane-1-carboxylic acid] was less than 300 nM.
The value for `Cc1cc(C2(C(=O)O)CC2)ccc1-c1ccc(-n2ncc(Cl)c2NC(=O)O[C@H](C)c2ccccc2)cc1` [Compound 14, (R)-1-(4′-(4-chloro-5-(((1-phenylethoxy)carbonyl)amino)-1H-pyrazol-1-yl)-2-methyl-[1,1′-biphenyl]-4-yl)cyclopropane-1-carboxylic acid] was less than 300 nM.
In the case of `C[C@@H](OC(=O)Nc1c(F)cnn1-c1ccc(-c2ccc(C3(C(N)=O)CC3)cc2)cc1)c1ccccc1Cl` [Compound 15, (R)-1-(2-chlorophenyl)ethyl (1-(4′-(1-carbamoylcyclopropyl)-[1,1′-biphenyl]-4-yl)-4-fluoro-1H-pyrazol-5-yl)carbamate], the IC50 was less than 300 nM.
The figure for `C[C@@H](OC(=O)Nc1c(F)cnn1-c1ccc(-c2ccc(C3(C(=O)NS(C)(=O)=O)CC3)cc2F)cc1)c1ccccc1Cl` [Compound 16, (R)-1-(2-chlorophenyl)ethyl (4-fluoro-1-(2′-fluoro-4′-(1-((methylsulfonyl)carbamoyl)cyclopropyl)-[1,1′-biphenyl]-4-yl)-1H-pyrazol-5-yl)carbamate] is less than 300 nM; for `C[C@@H](OC(=O)Nc1c(F)cnn1-c1ccc(-c2ccc(C3(C(=O)NS(C)(=O)=O)CC3)cc2F)cc1)c1ccccc1` [Compound 17, (R)-1-phenylethyl (4-fluoro-1-(2′-fluoro-4′-(1-((methylsulfonyl)carbamoyl)cyclopropyl)-[1,1′-biphenyl]-4-yl)-1H-pyrazol-5-yl)carbamate] it is less than 300 nM; for `C[C@@H](OC(=O)Nc1c(Cl)cnn1-c1ccc(-c2ccc(C3(C(=O)NS(C)(=O)=O)CC3)cc2F)cc1)c1ccccc1Cl` [Compound 18, (R)-1-(2-chlorophenyl)ethyl (4-chloro-1-(2′-fluoro-4′-(1-((methylsulfonyl)carbamoyl)cyclopropyl)-[1,1′-biphenyl]-4-yl)-1H-pyrazol-5-yl)carbamate] it is less than 300 nM.
The figure for `C[C@@H](OC(=O)Nc1c(Cl)cnn1-c1ccc(-c2ccc(C3(C(=O)NS(C)(=O)=O)CC3)cc2)cc1)c1ccccc1` [Compound 19, (R)-1-phenylethyl (4-chloro-1-(4′-(1-((methylsulfonyl)carbamoyl)cyclopropyl)-[1,1′-biphenyl]-4-yl)-1H-pyrazol-5-yl)carbamate] is less than 300 nM; for `C[C@@H](OC(=O)Nc1c(F)cnn1-c1ccc(-c2ccc(C3(C(=O)NS(C)(=O)=O)CC3)cc2)cc1)c1ccccc1Cl` [Compound 20, (R)-1-(2-chlorophenyl)ethyl (4-fluoro-1-(4′-(1-((methylsulfonyl)carbamoyl)cyclopropyl)-[1,1′-biphenyl]-4-yl)-1H-pyrazol-5-yl)carbamate] it is less than 300 nM; for `C[C@@H](OC(=O)Nc1c(F)cnn1-c1ccc(-c2ccc(C3(c4nnn[nH]4)CC3)cc2)cc1)c1ccccc1Cl` [Compound 21, (R)-1-(2-chlorophenyl)ethyl (1-(4′-(1-(1H-tetrazol-5-yl)cyclopropyl)-[1,1′-biphenyl]-4-yl)-4-fluoro-1H-pyrazol-5-yl)carbamate] it is 1000 to 50000 nM.
The value for `C[C@@H](OC(=O)Nc1c(Cl)cnn1-c1ccc(-c2ccc(C3(c4nnn[nH]4)CC3)cc2)cc1)c1ccccc1` [Compound 22, (R)-1-phenylethyl (1-(4′-(1-(1H-tetrazol-5-yl)cyclopropyl)-[1,1′-biphenyl]-4-yl)-4-chloro-1H-pyrazol-5-yl)carbamate] was less than 300 nM.
For `C[C@@H](OC(=O)Nc1c(Cl)cnn1-c1ccc(-c2ccc(C3(c4nnn[nH]4)CC3)cc2)cc1)c1ccccc1Cl` [Compound 23, (R)-1-(2-chlorophenyl)ethyl (1-(4′-(1-(1H-tetrazol-5-yl)cyclopropyl)-[1,1′-biphenyl]-4-yl)-4-chloro-1H-pyrazol-5-yl)carbamate], the IC50 was in the range of 1000 to 50000 nM.
